Reference: EP0837881B1, “CONJUGATES OF alpha-MSH WITH A FATTY ACID, PREPARATION METHOD THEREFOR, AND USE THEREOF AS A DRUG” (INSTITUT EUROPEEN DE BIOLOGIE CELLULAIRE, priority 1995, dated 2004)
Where “and” joins values, the source holds several entries; their conditions need not be identical. Equal entries are not always repeated. Numbered stars: 1 amine (or outer) side, 2 acyl side, 3 side chain; on linkers, the order of the positions; unused ones are H or OH. Square brackets hold non-standard residues; d marks the D form. Peptide text beside a SMILES is read from it. Adipoyl = O=C(CCCCC(=O)[*:2])[*:1]; d(hPhe) = N[C@H](CCc1ccccc1)C(=O)O; hLeu = CC(C)CC[C@H](N)C(=O)O

What was measured:
[1] = test system: souris femelles C57 BL/6JICO; assay: Contact hypersensitivity test to dinitrofluorobenzene (DNFB), anti-allergic activity, topical application (Example 6); format: in vivo; settings: for % Augment. O. Gauche / % Augment. O. Droite: increase of ear thickness; for % Augment. O. Gauche / % Suppress. O. Gauche: left ear; for % Augment. O. Droite / % Suppress. O. Droite: right ear; for % Suppress. O. Gauche / % Suppress. O. Droite: suppression versus control lot
Source text: Des souris femelles C57 BL/6JICO, âgées de 5 semaines sont réparties en dix lots de dix animaux (cinq par cage), avec libre accès à l'eau et à la nourriture, soumises à une photopériode de douze heures de lumière par vingt-quatre heures.
Les animaux des lots 1 à 6 reçoivent quotidiennement et par application topique sur la peau rasée du dos, les produits à étudier (conjugués 1 et 5 représentés par les composés P1 et P2 préparés selon les exemples 1 et 2), mis en solution dans du propylène glycol, sous un volume constant de 50 µl et cela pendant cinq jours consécutifs.
• Composé P1 - Lots 1, 2 et 3 - 2,5 µg, 0,5 µg et 0,1 µg /souris/jour respectivement. • Composé P2 - Lots 4, 5 et 6 - 2,5 µg, 0,5 µg et 0.1 µg /souris/jour respectivement.
Les animaux du lot 10 servent de témoins (ils reçoivent seulement, 50 µl de propylène glycol par application topique pendant cinq jours).
Au cinquième jour, trente minutes après la dernière application toutes les souris sont sensibilisées avec 25 µl de D N F B (2,4-dinitro-1-fluorobenzène (FLUKA CHEMIKA PURUM à 97 % lot n° 33820890)) à 2 % dans un mélange 4 pour 1 d'acétone (SDS réf 0510) et de trioléine (FLUKA) appliqué par voie topique sur la région dorsale de peau rasée.
Au sixième jour, on procède à une nouvelle sensibilisation par application de D N F B.
Au onzième jour, l'épaisseur des oreilles des souris, est mesurée à l'aide d'un micromètre (ROCH 0 à 25 mm au 1/100 mm) afin d'obtenir des valeurs de base, puis les oreilles sont stimulées par application topique de 20 µl de DNFB à 0,8 %.
Au douzième jour, l'épaisseur des oreilles est à nouveau mesurée. On établit la valeur moyenne de l'épaississement des oreilles pour les souris des lots qui ont reçu les produits à étudier, ainsi que pour les souris du lot témoin.
Le pourcentage de suppression éventuelle sera exprimé par le calcul suivant : (T-E)/(T)x100 [formula] avec T pour le pourcentage d'augmentation de l'épaisseur moyenne des oreilles du lot témoin et E pour celui des lots qui ont reçu les produits à étudier.

[2] = test system: PGE2; assay: Inhibition of PGE2 production by IL1-stimulated MRC5 fibroblasts, RIA (Example 7); format: cell-based, humaine
Source text: Mise en évidence de l'effet inhibiteur des conjugués 1 et 5 (composés P1 et P2) sur la production par des fibroblastes stimulés par l'IL 1, d'un métabolite de l'acide arachidonique, la PGE2.
Nous avons choisi d'utiliser la souche ATCC MRC5 entretenue au laboratoire de façon continue et déjà testée par Cannon et al. (J. Immunol., 1986). Après un repiquage, les fibroblastes sont cultivés dans des micropuits (plaque de 24 puits de 2 cm^2, Falcon). L'innoculum est de 30 000 cellules par puits; le milieu nutritif utilisé est composé de RPMI 1640 (90 %) et de sérum de veau foetal décomplémenté (SVF, 10 %). Le milieu est changé tous les deux jours jusqu'à confluence des cellules.
Les couches monocellulaires ainsi obtenues sont lavées puis préincubées pendant 24 heures dans du milieu frais ne contenant que 1 % de SVF. […] Après 20 minutes d'incubation en présence de ces composés, l'ILI recombinante humaine (Tebu, France) à la concentration de 5, 2,5 ou 0,5 ng/ml de milieu est mise en contact avec des cellules pendant 18 heures. A la fin de cette incubation les surnageants sont prélevés et congelés à - 80 ° C jusqu'à l'analyse. Les couches monocellulaires sont fixées au méthanol.
Le dosage RIA est effectué selon la méthode décrite par Dray et al. (Europ. J. Invest. 1975). 3 séries d'expériences en duplicate ont été réalisées pour chaque concentration de produit étudié et pour les contrôles. Les résultats sont exprimés en pg/µg d'ADN. L'effet inhibiteur est exprimé en pourcentage par rapport aux contrôles.
Afin d'éviter toute erreur possible due au comptage en microscopie optique, l'ADN a été dosé par méthode fluorimétrique selon le protocole décrit par Brunk et al. (Analytical Biochem., 1979).

[3] = test system: souris; assay: Comparative DNFB contact hypersensitivity test, conjugate versus its peptide alone (Example 9); format: in vivo
Source text: La méthode utilisée est celle décrite précédemment dans l'exemple N° 4, hypersensibilité de contact induite chez la souris par la D N F B. • Produits étudiés Lot I : [formula] - Conjugué 1 représenté par le composé P3. Lot II : Me.Nle - Glu - His - D-homo-Phé - Arg - Trp - Gly - NH2 Lot T : Témoin = Acide trans-10-hydroxy-2-décénoïque.
Solvant : le propylène glycol précédemment employé comme témoin dans l'exemple 6.
Une mesure de l'activité du témoin sera effectuée pour chaque expérimentation. - Expérimentation et posologie
Témoin: 10 ng d' acide trans-10-hydroxy-2-décénoïque par souris et par jour.
Au cinquième jour, trente minutes après la dernière application toutes les souris sont sensibilisées avec 25 µl de D N F B (2.4-dinitro-1-fluorobenzène (FLUKA CHEMIKA PURUM à 97 % lot N° 33820890)) à 2 % dans un mélange 4 pour 1 d'acétone (SDS réf. 05510) et de trioléine (FLUKA) appliqué par voie topique sur la région dorsale de peau rasée. Au sixième jour, on procède à une nouvelle sensibilisation par application de D N F B. Au onzième jour, l'épaisseur des oreilles des souris, est mesurée à l'aide d'un micromètre (ROCH 0 à 25 mm au 1/100 mm) afin d'obtenir des valeurs de base, puis les oreilles sont stimulées par application topique de 20 µl de D N F B à 0,8 %. Au douzième jour, l'épaisseur des oreilles est à nouveau mesurée. On établit la valeur moyenne de l'épaississement des oreilles pour les souris des lots qui ont reçu les produits à étudier, ainsi que pour les souris du lot témoin.Le pourcentage de suppression éventuelle sera exprimé par la même équation que dans l'exemple 6.

[4] = 0,1 µg/souris/jour topical for 5 days in propylene glycol
[5] = 0,1 µg/souris/jour topical for 5 days
[6] = 0,5 µg/souris/jour topical for 5 days in propylene glycol
[7] = 0,5 µg/souris/jour topical for 5 days
[8] = 2,5 µg/souris/jour topical for 5 days in propylene glycol
[9] = 2,5 µg/souris/jour topical for 5 days

## CC(C)CC[C@H](NC(=O)CCCCC(=O)O)C(=O)N[C@@H](CCC(=O)O)C(=O)N[C@@H](Cc1c[nH]cn1)C(=O)N[C@H](CCc1ccccc1)C(=O)N[C@@H](CCCNC(=N)N)C(=O)N[C@@H](Cc1c[nH]c2ccccc12)C(=O)NCC(N)=O [Conjugué 1, Adipoyl - Me.Nle - Glu - His - D-homo-Phé - Arg - Trp - Gly - NH2] (Adipoyl-[hLeu]EH[d(hPhe)]RWG-NH2)
[1]; [4]
  % Augment. O. Gauche: 21,50%
  % Augment. O. Droite: 22,00%
[1]; [5]
  % Suppress. O. Gauche: 62,93%
  % Suppress. O. Droite: 62,39%
[1]; [6]
  % Augment. O. Gauche: 19,00%
  % Augment. O. Droite: 19,50%
[1]; [7]
  % Suppress. O. Gauche: 67,24%
  % Suppress. O. Droite: 66,66%
[1]; [8]
  % Augment. O. Gauche: 17,50%
  % Augment. O. Droite: 17,80%
[1]; [9]
  % Suppress. O. Gauche: 69,80%
  % Suppress. O. Droite: 69,57%
[1]; matches the 2,5 µg/souris/jour lots of Table 1
  suppression de la réaction d'hypersensibilité cutanée induite par administration de D N F. B: ~69%
[2]; IL1 0,5 ng, conjugate 10^-4 M
  % inhib.: 60%
  PGE2: 113 ± 25 pg/mg d'ADN
[2]; IL1 0,5 ng, conjugate 10^-5 M
  % inhib.: 38%
  PGE2: 176 ± 37 pg/mg d'ADN
[2]; IL1 0,5 ng, conjugate 10^-6 M
  % inhib.: 19%
  PGE2: 231 ± 55 pg/mg d'ADN
[2]; IL1 0,5 ng, conjugate 10^-7 M
  % inhib.: 13%
  PGE2: 249 ± 60 pg/mg d'ADN
[2]; IL1 0,5 ng, conjugate 10^-8 M
  % inhib.: 10%
  PGE2: 258 ± 35 pg/mg d'ADN
[2]; IL1 0,5 ng, conjugate 10^-9 M
  PGE2: 364 ± 56 pg/mg d'ADN
[2]; IL1 2,5 ng, conjugate 10^-4 M
  % inhib.: 53%
  PGE2: 179 ± 50 pg/mg d'ADN
[2]; IL1 2,5 ng, conjugate 10^-5 M
  % inhib.: 40%
  PGE2: 232 ± 45 pg/mg d'ADN
[2]; IL1 2,5 ng, conjugate 10^-6 M
  % inhib.: 24%
  PGE2: 292 ± 68 pg/mg d'ADN
[2]; IL1 2,5 ng, conjugate 10^-7 M
  % inhib.: 6%
  PGE2: 364 ± 68 pg/mg d'ADN
[2]; IL1 2,5 ng, conjugate 10^-8 M
  % inhib.: 13%
  PGE2: 335 ± 50 pg/mg d'ADN
[2]; IL1 2,5 ng, conjugate 10^-9 M
  % inhib.: 17%
  PGE2: 320 ± 43 pg/mg d'ADN
[2]; Table 2, dose-effect relation, independent of IL1 concentration
  action inhibitrice: bonne action inhibitrice
[2]; conjugate 10^-7 M and lower, at both IL1 concentrations (2,5 and 0,5 ng)
  action à partir de 10^-7 M: pas d'action
[2]; summary of Tables 2 and 3
  pouvoir inhibiteur de l'action de l'IL1 et de la PGE2: possèdent un pouvoir inhibiteur

## CC(C)CC[C@H](N)C(=O)N[C@@H](CCC(=O)O)C(=O)N[C@@H](Cc1c[nH]cn1)C(=O)N[C@H](CCc1ccccc1)C(=O)N[C@@H](CCCNC(=N)N)C(=O)N[C@@H](Cc1c[nH]c2ccccc12)C(=O)NCC(N)=O [Lot II, Me.Nle - Glu - His - D-homo-Phé - Arg - Trp - Gly - NH2] (H-[hLeu]EH[d(hPhe)]RWG-NH2)
[3]; 0,1 µg/souris/jour
  suppression de l'hypersensibilité cutanée: 47%
[3]; 0,5 µg/souris/jour
  suppression de l'hypersensibilité cutanée: ~60%
[3]; 2,5 µg/souris/jour
  suppression de l'hypersensibilité cutanée: ~69%

## O=C(O)/C=C/CCCCCCCO [Lot T, Acide trans-10-hydroxy-2-décénoïque]
[3]; 0,01 µg/souris/jour (10 ng) topical in propylene glycol, control substance, one measurement per experiment, left ear
  % Augment. O. Gauche: 55,80% and 57,10%
[3]; 0,01 µg/souris/jour (10 ng) topical in propylene glycol, control substance, one measurement per experiment, right ear
  % Augment. O. Droite: 56,00% and 57,50%
[3]; in solution in propylene glycol, 10 ng per mouse per day
  effet suppressif de l'hypersensibilité cutanée: pas d'effet suppressif
